Values of other authors in patent US20080299189A1, “CONTROLLED RELEASE DOPAMINE AGONIST COMPOSITIONS” (DRUGTECH CORPORATION, priority 2007, published 2008).

Columns and labels:
[1] = compared to placebo

CCCN[C@H]1CCc2nc(N)sc2C1 [pramipexole, (S)-2-amino-4,5,6,7-tetrahydro-6-(propylamino)benzothiazole]
half-life (in vivo): 8.5 h | Cmax (printed as a time): 1 to 3 h | relative risk of hallucination [1]: 5.2 | relative risk of hypotension [1]: 1.65 | relative risk of somnolence [1]: 2.01
